From patent US20040147607A1, “Stable gabapentin having pH within a controlled range” (priority 2000, published 2004)

Tests used:
[1] = pH of purified gabapentin / gabapentin tablets; assay type: physicochemical
[2] = Storage stability: conversion of gabapentin to its corresponding lactam (HPLC vs. standard); assay type: physicochemical; settings: gabapentin pure; for conversion of gabapentin to its corresponding lactam: after a year of storage at 25° C. and 60% relative humidity
Method: Gabapentin purified according to these procedures contains less than 0.5% lactam as measured by HPLC vs. standard. After a year of storage at 25° C. and 60% relative humidity, the conversion of gabapentin to its corresponding lactam is measured not to exceed 0.2% by weight of gabapentin.

cardiozole cramp = settings: in animals; U.S. Pat. No. 4,024,175; cited from earlier work
[3] = according to Augart (U.S. Pat. No. 6,054,482); cited from earlier work
[4] = gabapentin pure after the reslurry in methanol (Examples 2, 3: basic agent added)
[5] = gabapentin pure after crystallization in methanol (Examples 11-16: basic agent added)

Structure (SMILES) | conversion of gabapentin to its corresponding lactam [2] | pH [1, 5] | other results
NCC1(CC(=O)O)CCCCC1 [Example 1, 1-(aminomethyl)-1-cyclohexaneacetic acid] | ≤ 0.2 % by weight of gabapentin |  | pH [1, 4]: 6.84-7.04
NCC1(CC(=O)O)CCCCC1 [Example 2, 1-(aminomethyl)-1-cyclohexaneacetic acid] | ≤ 0.2 % by weight of gabapentin |  | pH [1, 4]: 7.15
NCC1(CC(=O)O)CCCCC1 [Example 3, 1-(aminomethyl)-1-cyclohexaneacetic acid] | ≤ 0.2 % by weight of gabapentin |  | pH [1, 4]: 6.8
NCC1(CC(=O)O)CCCCC1 [Example 4, 1-(aminomethyl)-1-cyclohexaneacetic acid] | ≤ 0.2 % by weight of gabapentin |  | 
NCC1(CC(=O)O)CCCCC1 [Example 11, 1-(aminomethyl)-1-cyclohexaneacetic acid] | ≤ 0.2 % by weight of gabapentin | 7.25 | 
NCC1(CC(=O)O)CCCCC1 [Example 12, 1-(aminomethyl)-1-cyclohexaneacetic acid] | ≤ 0.2 % by weight of gabapentin | 7.08 | amount of lactam after storage ([2]; after a year of storage at 55° C. and 50% relative humidity): less than 0.5 % by weight
NCC1(CC(=O)O)CCCCC1 [Example 13, 1-(aminomethyl)-1-cyclohexaneacetic acid] | ≤ 0.2 % by weight of gabapentin | 7.28 | amount of lactam after storage ([2]; after a year of storage at 25° C. and 50% relative humidity): less than 0.5 % by weight
NCC1(CC(=O)O)CCCCC1 [Example 14, 1-(aminomethyl)-1-cyclohexaneacetic acid] |  | 7.03 | 
NCC1(CC(=O)O)CCCCC1 [Example 15, 1-(aminomethyl)-1-cyclohexaneacetic acid] |  | 7.22 | 
NCC1(CC(=O)O)CCCCC1 [Example 16, 1-(aminomethyl)-1-cyclohexaneacetic acid] |  | 7.17 | 
NCC1(CC(=O)O)CCCCC1 [gabapentin, 1-(aminomethyl)-1-cyclohexaneacetic acid] |  |  | protective effect against cardiozole cramp (cardiozole cramp): protective effect against cardiozole cramp
O=C1CC2(CCCCC2)CN1 [lactam] |  |  | toxicity compared with gabapentin [3]: higher toxicity than gabapentin
